In brackets after ≈: the same amount, converted by molar mass. Activity calls are given as the source filed them. The calls are words filed in the database; no cut-off is given here.
Legend:
Saccharomyces cerevisiae [1] = test: Synergistic antifungal activity against fluconazole resistant Saccharomyces cerevisiae overexpressing CgCdr1p transporter assessed as fractional inhibitory concentration incubated for 48 hrs in presence of lapachone by checkboard assay based microplate reader analysis; assay type: functional
Saccharomyces cerevisiae [2] = test: Synergistic antifungal activity against fluconazole resistant Saccharomyces cerevisiae overexpressing CgCdr1p transporter assessed as reduction in fungal growth incubated for 48 hrs in presence of lapachone by checkboard assay based microplate reader analysis; assay type: functional
Nakaseomyces glabratus [3] = test: Disruption of plasma membrane integrity in fluconazole resistant Candida glabrata 109 overexpressing CgCdr1p transporter assessed as fold increase in sytox green fluorescence intensity at 50 ug/ml incubated for 48 hrs by fluorescence based assay; assay type: functional; settings: dose 50 µg/ml
Saccharomyces cerevisiae [4] = test: Synergistic antifungal activity against fluconazole resistant Saccharomyces cerevisiae overexpressing CgCdr1p transporter assessed as fractional inhibitory concentration index incubated for 48 hrs by checkboard assay based microplate reader analysis; assay type: functional
Nakaseomyces glabratus [5] = test: Additive antifungal activity against fluconazole resistant Candida glabrata 109 overexpressing CgCdr1p transporter assessed as fractional inhibitory concentration incubated for 48 hrs in presence of fluconazole by checkboard assay based microplate reader analysis; assay type: functional
Nakaseomyces glabratus [6] = test: Antifungal activity against fluconazole resistant Candida glabrata 109 overexpressing CgCdr1p transporter assessed as reduction in fungal growth incubated for 48 hrs by checkboard assay based microplate reader analysis; assay type: functional
Saccharomyces cerevisiae [7] = test: Synergistic antifungal activity against fluconazole resistant Saccharomyces cerevisiae overexpressing CgCdr2p transporter assessed as fractional inhibitory concentration in presence of fluconazole incubated for 48 hrs by checkboard assay based microplate reader analysis; assay type: functional
Erythrocyte [8] = test: Hemolytic activity in human erythrocytes assessed as haemoglobin release at 12.5 ug/ml incubated for 1 hr in presence of fluconazole by absorbance based method; assay type: toxicity, cell-based; settings: dose 12.5 µg/ml
Nakaseomyces glabratus [9] = test: Disruption of plasma membrane integrity in fluconazole resistant Candida glabrata 109 overexpressing CgCdr1p transporter assessed as fold increase in sytox green fluorescence intensity at 200 ug/ml incubated for 48 hrs by fluorescence based assay; assay type: functional; settings: dose 200 µg/ml
[10] = Inhibition of fluconazole resistant Candida glabrata 109 overexpressing CgCdr1p transporter […] cell adhesion to polystyrene at 200 ug/ml incubated for 90 mins by MTT assay; assay type: functional; settings: Nakaseomyces glabratus, 109, 1.5 h
Nakaseomyces glabratus [11] = test: Additive antifungal activity against fluconazole resistant Candida glabrata 109 overexpressing CgCdr1p transporter assessed as reduction in fungal growth incubated for 48 hrs in presence of lapachone by checkboard assay based microplate reader analysis; assay type: functional
Erythrocyte [12] = test: Hemolytic activity in human erythrocytes assessed as haemoglobin release at 12.5 ug/ml incubated for 1 hr by absorbance based method; assay type: toxicity, cell-based; settings: dose 12.5 µg/ml
Saccharomyces cerevisiae [13] = test: Synergistic antifungal activity against fluconazole resistant Saccharomyces cerevisiae overexpressing CgCdr2p transporter assessed as reduction in fungal growth incubated for 48 hrs in presence of fluconazole by checkboard assay based microplate reader analysis; assay type: functional
Saccharomyces cerevisiae [14] = test: Synergistic antifungal activity against fluconazole resistant Saccharomyces cerevisiae overexpressing CgCdr2p transporter assessed as fractional inhibitory concentration incubated for 48 hrs in presence of lapachone by checkboard assay based microplate reader analysis; assay type: functional
Saccharomyces cerevisiae [15] = test: Synergistic antifungal activity against fluconazole resistant Saccharomyces cerevisiae overexpressing CgCdr1p transporter assessed as reduction in fungal growth incubated for 48 hrs in presence of fluconazole by checkboard assay based microplate reader analysis; assay type: functional
Nakaseomyces glabratus [16] = test: Additive antifungal activity against fluconazole resistant Candida glabrata 109 overexpressing CgCdr1p transporter assessed as fractional inhibitory concentration index incubated for 48 hrs by checkboard assay based microplate reader analysis; assay type: functional
Nakaseomyces glabratus [17] = test: Inhibition of fluconazole resistant Candida glabrata 109 overexpressing CgCdr1p transporter ATPase activity assessed as reduction in inorganic phosphate release in presence of ATP incubated for 1 hr by Fiske and Sub barrow method; settings: concentration not given here
Saccharomyces cerevisiae [18] = test: Synergistic antifungal activity against fluconazole resistant Saccharomyces cerevisiae overexpressing CgCdr2p transporter assessed as reduction in fungal growth incubated for 48 hrs in presence of lapachone by checkboard assay based microplate reader analysis; assay type: functional
Saccharomyces cerevisiae [19] = test: Synergistic antifungal activity against fluconazole resistant Saccharomyces cerevisiae overexpressing CgCdr1p transporter assessed as fractional inhibitory concentration in presence of fluconazole incubated for 48 hrs by checkboard assay based microplate reader analysis; assay type: functional
Nakaseomyces glabratus [20] = test: Induction of morphological changes in fluconazole resistant Candida glabrata 109 overexpressing CgCdr1p transporter assessed as decrease in number of cells within biofilm at 200 ug/ml incubated for 48 hrs by SEM analysis; assay type: functional, organism-based; settings: dose 200.0 µg/ml
Nakaseomyces glabratus [21] = test: Indifferent antifungal activity against fluconazole resistant Candida glabrata 109 overexpressing CgCdr1p transporter assessed as reduction in fungal growth incubated for 48 hrs in presence of lapachone by checkboard assay based microplate reader analysis; assay type: functional
Saccharomyces cerevisiae [22] = test: Inhibition of fluconazole resistant Saccharomyces cerevisiae overexpressing CgCdr2p transporter ATPase activity assessed as reduction in inorganic phosphate release in presence of ATP incubated for 1 hr by Fiske and Sub barrow method; settings: concentration not given here
Erythrocyte [23] = test: Hemolytic activity in human erythrocytes assessed as haemoglobin release at 50 ug/ml incubated for 1 hr by absorbance based method; assay type: toxicity, cell-based; settings: dose 50 µg/ml
Saccharomyces cerevisiae [24] = test: Additive antifungal activity against fluconazole resistant Saccharomyces cerevisiae overexpressing CgCdr1p transporter assessed as fractional inhibitory concentration index incubated for 48 hrs by checkboard assay based microplate reader analysis; assay type: functional
Saccharomyces cerevisiae [25] = test: Additive antifungal activity against fluconazole resistant Saccharomyces cerevisiae overexpressing CgCdr1p transporter assessed as reduction in fungal growth incubated for 48 hrs in presence of fluconazole by checkboard assay based microplate reader analysis; assay type: functional
Erythrocyte [26] = test: Hemolytic activity in human erythrocytes assessed as haemoglobin release at 50 ug/ml incubated for 1 hr in presence of fluconazole by absorbance based method; assay type: toxicity, cell-based; settings: dose 50 µg/ml
Saccharomyces cerevisiae [27] = test: Additive antifungal activity against fluconazole resistant Saccharomyces cerevisiae overexpressing CgCdr1p transporter assessed as fractional inhibitory concentration incubated for 48 hrs in presence of lapachone by checkboard assay based microplate reader analysis; assay type: functional
Saccharomyces cerevisiae [28] = test: Additive antifungal activity against fluconazole resistant Saccharomyces cerevisiae overexpressing CgCdr1p transporter assessed as fractional inhibitory concentration in presence of fluconazole incubated for 48 hrs by checkboard assay based microplate reader analysis; assay type: functional
Saccharomyces cerevisiae [29] = test: Additive antifungal activity against fluconazole resistant Saccharomyces cerevisiae overexpressing CgCdr1p transporter assessed as reduction in fungal growth incubated for 48 hrs in presence of lapachone by checkboard assay based microplate reader analysis; assay type: functional

## CC1(C)CCC2=C(O1)c1ccccc1C(=O)C2=O [LAPACHONE]
Saccharomyces cerevisiae [1]
  FIC: 0.25 µg/mL
Saccharomyces cerevisiae [2]
  MIC: 25 µg/mL
Nakaseomyces glabratus [3]
  fold change (FC): 1.6
Saccharomyces cerevisiae [4]
  fractional inhibitory concentration index (FICI): 0.5
Nakaseomyces glabratus [5]
  FIC: 0.125 µg/mL
Nakaseomyces glabratus [6]
  MIC: 25 µg/mL (≈ 103 µM)
Saccharomyces cerevisiae [7]
  FIC: 0.06 µg/mL
Erythrocyte [8]
  Activity: Non-Toxic
Nakaseomyces glabratus [9]
  fold change (FC): 3
[10]
  inhibition at 200 µg/mL: 44%
Nakaseomyces glabratus [11]
  MIC: 12.5 µg/mL
Erythrocyte [12]
  Activity: Non-Toxic
Saccharomyces cerevisiae [13]
  MIC: 3.9 µg/mL
Saccharomyces cerevisiae [14]
  FIC: 0.25 µg/mL
Saccharomyces cerevisiae [15]
  MIC: 125 µg/mL
Nakaseomyces glabratus [16]
  fractional inhibitory concentration index (FICI): 0.625
Nakaseomyces glabratus [17]
  inhibition: 49%
Saccharomyces cerevisiae [18]
  MIC: 6.25 µg/mL
Saccharomyces cerevisiae [19]
  FIC: 0.25 µg/mL
Nakaseomyces glabratus [20]
  Activity: Active
Nakaseomyces glabratus [21]
  MIC: > 200 µg/mL
Saccharomyces cerevisiae [22]
  inhibition: 46%

## CC1(C)CC2=C(O1)c1ccccc1C(=O)C2=O [NOR-BETA-LAPACHONE]
Erythrocyte [23]
  Activity: Non-Toxic
Nakaseomyces glabratus [5]
  FIC: 0.125 µg/mL
Saccharomyces cerevisiae [24]
  fractional inhibitory concentration index (FICI): 0.625
Nakaseomyces glabratus [6]
  MIC: 100 µg/mL (≈ 438 µM)
Saccharomyces cerevisiae [25]
  MIC: 62.5 µg/mL
Nakaseomyces glabratus [11]
  MIC: 50 µg/mL
Erythrocyte [26]
  Activity: Non-Toxic
Nakaseomyces glabratus [16]
  fractional inhibitory concentration index (FICI): 0.625
Saccharomyces cerevisiae [27]
  FIC: 0.5 µg/mL
Saccharomyces cerevisiae [28]
  FIC: 0.125 µg/mL
Saccharomyces cerevisiae [29]
  MIC: 25 µg/mL
Nakaseomyces glabratus [20]
  Activity: Active
Nakaseomyces glabratus [21]
  MIC: > 200 µg/mL

Source: ChEMBL document CHEMBL5120826, “Effects of β-lapachone and β-nor-lapachone on multidrug efflux transporters and biofilms of Candida glabrata” (Bioorg Med Chem, 2022)
